Test: Example 2 multiple rising dose inhaled delta-9-THC study: plasma pharmacokinetics
Protocol: A randomized, double-blind, placebo-controlled, multiple rising dose safety, tolerability, pharmacokinetic and pharmacodynamic study to assess two dose levels of inhaled delta-9-THC was conducted. Dose levels were studied in ascending order. Two consecutive groups (n=9/group) of healthy subjects were studied (Groups I and II). […] There was a lapse of at least 10 days between the groups for interim safety and pharmacokinetic analysis. Two dose levels were studied in ascending order. […] Subjects in each treatment Group (I or II) received single and multiple doses of inhaled delta-9-THC according to the following schedule:
For both dose levels, the first and the last dose of study drug was given under fasted conditions. Subjects were confined to the study site from the evening of Day −2 (Day 1 is the day of administration of the first dose of study drug) until the 120-hour blood sample following the final dose of study drug, resulting in an 18-day confinement period for subjects in Group I and a 25-day confinement period for Group II. Between the completion of Group I and the start of Group II, an interim safety and pharmacokinetic analysis was performed. Based on the results of the interim analyses, the dose level for investigation in Group II was determined.
Two MDI dosage strengths were used corresponding to the same formulations used in Example 1: one delivering 0.3 mg delta-9-THC (or placebo) per actuation and one delivering 1.2 mg delta-9-THC (or placebo) per actuation. The MDI consisted of a pressurized (via propellants) container and a metered-dose valve. The propellants provided the necessary force to expel the drug, and also acted as a solvent and diluent. The canister unit was provided within a mouthpiece (oral adapter), to expel an exact amount of drug, in the proper particle size distribution, upon each actuation. Two basic formulations containing 0.3 and 1.2 mg of delta-9-THC per 50 μL were developed with propellant 1,1,1,2 tetrafluoroethane 134a (HFA 134a), and ethanol as solvent. The formulations were made in accordance with the composition used in Example 1.
Whole blood samples were collected according to the assessment flowchart in EDTA tubes through venepuncture or indwelling catheter. Samples were immediately placed on ice and subsequently centrifuged within 30 minutes at 1,500 g for 10 minutes. Plasma was transferred into a 5 ml screw cap polypropylene tube, stoppered and stored at below minus 20° C. until transfer to the analytical laboratory for analysis. […] The measurement ranges were 0.05-30 ng/ml for delta-9-THC, 0.04-30 ng/ml for 11-OH-THC, and 0.25-10 ng/ml for THC-COOH.
For Example 2: The statistical analysis encompassed an exploratory analysis of the single and multiple dose pharmacokinetics and dose proportionality of two dose levels of inhaled delta-9-THC in healthy subjects. Descriptive statistics included number of subjects, mean, standard deviation, coefficient of variation (%) and geometric mean for all pharmacokinetic parameters.
The exploratory analysis was performed on the logarithms of the dose-normalized pharmacokinetic parameters AUC(0-inf), AUC(0-t), AUC(0-τ) and Cmax. Dose proportionality was tested both at single dose and at multiple dose (steady state) by comparing the dose groups for all pharmacokinetic parameters by an analysis of variance with dose as fixed effect.
Dose proportionality was tested by the contrast between the dose groups. For this contrast on the logarithmic scale, p-values were given. After anti-logarithmic transformation, the resultant ratios of geometric means and 90% confidence intervals were given.
Accumulation was tested by comparing the steady state values for AUC(0-τ) with the single dose values for AUC(0-τ) by a mixed model analysis of variance with dose and day (with levels single dose and steady state) as fixed effects and subject within dose as random effect.

CCCCCc1cc(O)c2c(c1)OC(C)(C)C1CCC(C(=O)O)=CC21 (stereo not drawn) [THC-COOH, delta-9-tetrahydrocannbinol-carboxylic acid]
achievement of steady state (1.2 mg delta-9-THC three times daily): lack of steady state | Cmax, Geometric Mean (Range) (1.2 mg m.d. (three times daily), Day 12, Group I): 7.97 (6.03-10.9) ng/mL | AUC(0-8), Arithmetic Mean (SD) (1.2 mg m.d., Day 12, Group I): 51.9 (14.7) ng · h/mL | AUC(0-8), Geometric Mean (Range) (1.2 mg m.d., Day 12, Group I): 50.1 (34.1-69.8) ng · h/mL | Cmax, Arithmetic Mean (SD) (1.2 mg m.d., Day 12, Group I): 8.15 (1.87) ng/mL | tmax, Arithmetic Mean (SD) (1.2 mg m.d., Day 12, Group I): 0.86 (0.88) h | tmax, median (range) (1.2 mg m.d., Day 12, Group I): 0.33 (0.25-2.00) h | t½, Arithmetic Mean (SD) (1.2 mg m.d., Day 12, Group I): 32.1 (9.07) h | t½, Geometric Mean (Range) (1.2 mg m.d., Day 12, Group I): 31.0 (23.2-43.8) h | AUC(0-8), Arithmetic Mean (SD) (1.2 mg s.d., Day 1): 18.5 (3.85) ng · h/mL | AUC(0-8), Geometric Mean (Range) (1.2 mg s.d., Day 1): 18.2 (13.0-24.2) ng · h/mL | AUC(0-inf), Arithmetic Mean (SD) (1.2 mg s.d., Day 1): 83.6 (18.5) ng · h/mL | AUC(0-inf), Geometric Mean (Range) (1.2 mg s.d., Day 1): 82.0 (60.5-110) ng · h/mL | tmax, Arithmetic Mean (SD) (1.2 mg s.d., Day 1): 1.54 (0.75) h | tmax, median (range) (1.2 mg s.d., Day 1): 2.00 (0.25-2.00) h | t½, Arithmetic Mean (SD) (1.2 mg s.d., Day 1): 33.9 (12.8) h | t½, Geometric Mean (Range) (1.2 mg s.d., Day 1): 32.0 (23.9-50.6) h | Cmax, Arithmetic Mean (SD) (1.2 mg s.d., Day 1, plasma): 3.81 (0.56) ng/mL | Cmax, Geometric Mean (Range) (1.2 mg s.d., Day 1, plasma): 3.77 (2.81-4.40) ng/mL | Cmax, Geometric Mean (Range) (3.6 mg m.d. (three times daily), Day 19, Group II): 25.5 (13.2-45.0) ng/mL | AUC(0-8), Arithmetic Mean (SD) (3.6 mg m.d., Day 19, Group II): 182 (97.5) ng · h/mL | AUC(0-8), Geometric Mean (Range) (3.6 mg m.d., Day 19, Group II): 159 (75.5-317) ng · h/mL | Cmax, Arithmetic Mean (SD) (3.6 mg m.d., Day 19, Group II): 28.1 (12.7) ng/mL | tmax, Arithmetic Mean (SD) (3.6 mg m.d., Day 19, Group II): 1.03 (0.79) h | tmax, median (range) (3.6 mg m.d., Day 19, Group II): 0.75 (0.33-2.00) h | t½, Arithmetic Mean (SD) (3.6 mg m.d., Day 19, Group II): 39.6 (15.3) h | t½, Geometric Mean (Range) (3.6 mg m.d., Day 19, Group II): 37.4 (24.0-62.3) h | AUC(0-8), Arithmetic Mean (SD) (3.6 mg s.d., Day 1): 47.1 (17.5) ng · h/mL | AUC(0-8), Geometric Mean (Range) (3.6 mg s.d., Day 1): 44.5 (30.2-74.4) ng · h/mL | AUC(0-inf), Arithmetic Mean (SD) (3.6 mg s.d., Day 1): 172 (85.6) ng · h/mL | AUC(0-inf), Geometric Mean (Range) (3.6 mg s.d., Day 1): 152 (64.8-283) ng · h/mL | tmax, Arithmetic Mean (SD) (3.6 mg s.d., Day 1): 2.33 (0.52) h | tmax, median (range) (3.6 mg s.d., Day 1): 2.00 (2.00-3.00) h | t½, Arithmetic Mean (SD) (3.6 mg s.d., Day 1): 23.8 (11.3) h | t½, Geometric Mean (Range) (3.6 mg s.d., Day 1): 21.7 (11.3-39.2) h | Cmax, Arithmetic Mean (SD) (3.6 mg s.d., Day 1, plasma): 8.75 (3.16) ng/mL | Cmax, Geometric Mean (Range) (3.6 mg s.d., Day 1, plasma): 8.34 (6.01-14.4) ng/mL | achievement of steady state (3.6-mg dose level three times daily): achieved after seven or eight days of dosing | accumulation during multiple dosing (8-hours dosing interval): accumulation occurred during multiple dosing | Ratio AUC(0-8) m.d./AUC(0-8) s.d. (Accumulation factor), Mean (Group I, 1.2 mg): 2.90 | Ratio AUC(0-8) m.d./AUC(0-inf) s.d. (Linearity), Mean (Group I, 1.2 mg): 0.65 | Ratio AUC(0-8) m.d./AUC(0-8) s.d. (Accumulation factor), Mean (Group II, 3.6 mg): 3.92 | Ratio AUC(0-8) m.d./AUC(0-inf) s.d. (Linearity), Mean (Group II, 3.6 mg): 1.11 | dose proportionality: geometric mean ratio (3.6 mg:1.2 mg) of dose-normalized AUC(0-8) (90% confidence interval) (Multiple dose): 1.05 (0.65-1.71) | dose proportionality: geometric mean ratio (3.6 mg:1.2 mg) of dose-normalized Cmax (90% confidence interval) (Multiple dose): 1.07 (0.71-1.60) | dose proportionality: geometric mean ratio (3.6 mg:1.2 mg) of dose-normalized AUC(0-8) (90% confidence interval) (Single dose): 0.82 (0.60-1.11) | dose proportionality: geometric mean ratio (3.6 mg:1.2 mg) of dose-normalized AUC(0-inf) (90% confidence interval) (Single dose): 0.62 (0.39-0.98) | dose proportionality: geometric mean ratio (3.6 mg:1.2 mg) of dose-normalized AUC(0-t) (90% confidence interval) (Single dose): 0.61 (0.34-1.09) | dose proportionality: geometric mean ratio (3.6 mg:1.2 mg) of dose-normalized Cmax (90% confidence interval) (Single dose): 0.74 (0.56-0.96) | exposure, fold higher compared to the parent (after both single and multiple dose administration): approximately 10 fold | Cmax, fold lower compared to the parent compound (after single dosing): 5 fold | dose proportionality of pharmacokinetic parameters (after single or multiple dose administration): not found to deviate significantly | plasma concentration-time curve, elimination profile (both dose levels): almost no distribution phase and a multi-phasic elimination phase | time of peak plasma concentration (both dose levels, post-dose): between 15 minutes and 3 hours post-dose | ratios of AUC(0-8) after multiple dosing versus AUC(0-inf) after single dose (linearity) (in vivo): did not deviate clearly or significantly from unity | Cmax and AUC values versus dose (single and multiple dose administration, 1.2 and 3.6 mg): Dose-related increases | Terminal elimination half-lives (summary estimate) (summary, best estimated after multiple dosing): ~30 h

— patent US20070020193A1, “Dronabinol compositions and methods for using same” (priority 2005, published 2007)
